Tests used:
[1] = system: Concanavalin A (ConA)-induced hepatitis; assay: Concanavalin A (ConA)-induced hepatitis model of autoimmune hepatitis, plasma transaminase (GPT); assay type: in vivo, Male Balb/C mice; conditions: blood 8 hours after ConA, vehicle 1338 U/L
Procedure: Concanavalin A (ConA)-induced hepatitis is a cell-mediated immunoinflammatory condition that can be induced in mice by a single intravenous injection of ConA. It is typically employed as a model for autoimmune hepatitis. The disease is characterized by a marked increase in the plasma levels of transaminase (GPT) shortly (8-24 hours) after ConA challenge and simultaneous infiltration of the liver with neutrophils, macrophages and T cells followed by apoptosis and necrosis of the hepatocytes. The aim of the present example was to evaluate the effects of a compound of formula (I) (QTX125) on histological and clinical parameters in the model of autoimmune hepatitis induced by ConA. Male Balb/C mice 7-8 weeks old (Envigo, San Pietro al Natisone, Udine, Italy) were kept under standard laboratory conditions (non-specific pathogen free) with free access to food and water and were allowed to adapt at least one week to their environment before commencing the study. ConA (Sigma Chemical, St. Louis, Mo.), was dissolved in sterile phosphate-buffered saline (PBS) and was injected into the tail veins of the animals at the dose of 20 mg/Kg. Three groups of 10 mice were treated at −24 and −1 hours before ConA injection as described in the table below: [table] […] The depth of colour is itself determined by the concentration of analyte in the sample.

[2] = system: experimental autoimmune encephalomyelitis induced by myelin oligodendrocyte glycoprotein (MOG); assay: MOG-induced experimental autoimmune encephalomyelitis (EAE), paralysis scores; assay type: in vivo, mice; conditions: variant of Example 2
Procedure: A variant of the animal model of Example 2 was tested. In particular, experimental autoimmune encephalomyelitis was induced by subcutaneous injection of myelin oligodendrocyte glycoprotein (MOG) instead of PLP.

PLP-induced EAE = assay: PLP-induced experimental autoimmune encephalomyelitis (EAE), clinical grading; assay type: in vivo, Female SJL mice

O=C(NO)c1ccc(CNC(=O)c2[nH]c(-c3ccc(O)cc3)cc2-c2ccoc2)cc1 [QTX125]
transaminase (GPT) plasma level (light emission) ([1]; 25 mg/Kg i.p. 24 and 1 hour before ConA (20 mg/Kg i.v.)): 606 U/L | transaminase (GPT) plasma level (light emission) ([1]; 50 mg/Kg i.p. 24 and 1 hour before ConA (20 mg/Kg i.v.)): 543 U/L | paralysis scores (EAE clinical grading) [2]: reduced paralysis scores | EAE clinical grading (mouse condition) with respect to vehicle (PLP-induced EAE; 60 mg/Kg i.p. daily for 35 consecutive days, day 7 to day 42 post immunization): substantial improvement of mouse condition | EAE clinical grading (mouse condition) with respect to dexamethasone (PLP-induced EAE; 60 mg/Kg i.p. daily vs dexamethasone 0.3 mg/Kg, greater part of the treatment, particularly at the end): even ameliorated with respect to dexamethasone

— patent publication US20190314334A1, “COMPOUNDS FOR THE TREATMENT OF AUTOIMMUNE DISEASES” (QUIMATRYX, S.L., priority 2016, published 2019)
